Reference: publication PMC10175918 (Communications Biology, 2023)
Where two headings read alike, the source gives them in different places.

Experiments:
Test in all cases: TGFα-shedding assay-based GPCR screening with chimeric Gα subunit proteins
Format in all cases: cell-based
348 GPCRs [1] = target: T1, 348 GPCRs (Homo sapiens, UniProt O95136); conditions: 10µM, Favipiravir 100μM
T1 construct: expressed in transfected cells; host or cells: HEK293A

348 GPCRs [2] = target: T2, 348 GPCRs (Homo sapiens, UniProt P04201)
T2 construct: expressed in transfected cells; host or cells: HEK293A
T2 sequence (P04201 1-325): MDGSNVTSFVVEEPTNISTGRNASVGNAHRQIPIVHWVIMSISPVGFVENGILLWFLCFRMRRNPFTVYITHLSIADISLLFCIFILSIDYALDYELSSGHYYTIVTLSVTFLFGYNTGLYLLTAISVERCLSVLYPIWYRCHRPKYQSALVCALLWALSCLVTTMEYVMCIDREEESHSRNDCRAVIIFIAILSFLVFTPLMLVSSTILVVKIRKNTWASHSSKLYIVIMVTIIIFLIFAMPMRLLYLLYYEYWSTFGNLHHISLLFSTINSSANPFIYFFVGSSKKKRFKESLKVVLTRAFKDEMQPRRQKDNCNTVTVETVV

348 GPCRs [3] = target: T3, 348 GPCRs (Homo sapiens, UniProt P22888); conditions: 10µM, Favipiravir 100μM
T3 construct: expressed in transfected cells; host or cells: HEK293A
T3 sequence (P22888 27-699): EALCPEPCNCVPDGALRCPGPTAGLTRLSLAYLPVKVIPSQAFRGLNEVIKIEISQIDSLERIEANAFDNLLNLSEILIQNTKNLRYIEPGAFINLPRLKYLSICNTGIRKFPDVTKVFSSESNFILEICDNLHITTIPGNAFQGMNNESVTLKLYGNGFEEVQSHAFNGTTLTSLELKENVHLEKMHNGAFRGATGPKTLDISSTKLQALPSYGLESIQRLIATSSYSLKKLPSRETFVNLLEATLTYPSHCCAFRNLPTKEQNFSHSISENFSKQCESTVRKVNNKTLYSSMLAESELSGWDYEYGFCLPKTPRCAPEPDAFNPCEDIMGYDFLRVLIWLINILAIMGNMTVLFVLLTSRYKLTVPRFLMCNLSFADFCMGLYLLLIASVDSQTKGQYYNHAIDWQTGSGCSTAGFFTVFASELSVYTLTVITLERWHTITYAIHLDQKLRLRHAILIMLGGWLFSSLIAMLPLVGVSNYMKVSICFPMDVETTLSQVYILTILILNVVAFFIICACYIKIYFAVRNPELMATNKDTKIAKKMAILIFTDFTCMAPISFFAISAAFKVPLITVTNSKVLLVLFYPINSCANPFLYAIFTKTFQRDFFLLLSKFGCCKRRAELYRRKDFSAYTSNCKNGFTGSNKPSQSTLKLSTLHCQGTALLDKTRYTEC

348 GPCRs [4] = target: 348 GPCRs (Homo sapiens, UniProt P25021); conditions: 10µM, Favipiravir 100μM
348 GPCRs (Homo sapiens, UniProt P25021), sequence (P25021 whole entry): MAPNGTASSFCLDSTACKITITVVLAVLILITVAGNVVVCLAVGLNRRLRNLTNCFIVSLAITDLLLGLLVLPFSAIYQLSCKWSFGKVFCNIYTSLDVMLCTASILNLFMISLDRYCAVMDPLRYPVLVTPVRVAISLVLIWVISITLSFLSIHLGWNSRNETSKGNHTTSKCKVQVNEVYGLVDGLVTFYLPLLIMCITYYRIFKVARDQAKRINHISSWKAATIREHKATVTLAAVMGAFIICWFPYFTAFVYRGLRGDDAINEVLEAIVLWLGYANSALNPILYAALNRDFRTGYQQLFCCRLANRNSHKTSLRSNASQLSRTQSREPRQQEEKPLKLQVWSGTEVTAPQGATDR

348 GPCRs [5] = target: T4, 348 GPCRs (Homo sapiens, UniProt P35367); conditions: 10µM, Favipiravir 100μM
T4 construct: expressed in transfected cells; host or cells: HEK293A
T4 sequence (P35367 whole entry): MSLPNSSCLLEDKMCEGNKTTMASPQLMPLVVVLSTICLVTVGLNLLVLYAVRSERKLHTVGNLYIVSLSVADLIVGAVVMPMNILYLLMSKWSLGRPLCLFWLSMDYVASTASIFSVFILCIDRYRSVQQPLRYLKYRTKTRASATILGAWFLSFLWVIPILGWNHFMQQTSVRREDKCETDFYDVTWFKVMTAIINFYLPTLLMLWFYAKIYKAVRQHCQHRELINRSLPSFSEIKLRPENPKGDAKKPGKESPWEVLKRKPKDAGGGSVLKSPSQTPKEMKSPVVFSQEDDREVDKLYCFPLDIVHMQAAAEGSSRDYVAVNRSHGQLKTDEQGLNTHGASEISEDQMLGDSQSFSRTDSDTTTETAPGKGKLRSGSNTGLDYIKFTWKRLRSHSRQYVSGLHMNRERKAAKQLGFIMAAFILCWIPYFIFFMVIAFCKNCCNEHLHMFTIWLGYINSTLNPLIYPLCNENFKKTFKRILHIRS

348 GPCRs [6] = target: T5, 348 GPCRs (Homo sapiens, UniProt P50391); conditions: 10µM, Favipiravir 100μM
T5 construct: expressed in transfected cells; host or cells: HEK293A
T5 sequence (P50391 whole entry): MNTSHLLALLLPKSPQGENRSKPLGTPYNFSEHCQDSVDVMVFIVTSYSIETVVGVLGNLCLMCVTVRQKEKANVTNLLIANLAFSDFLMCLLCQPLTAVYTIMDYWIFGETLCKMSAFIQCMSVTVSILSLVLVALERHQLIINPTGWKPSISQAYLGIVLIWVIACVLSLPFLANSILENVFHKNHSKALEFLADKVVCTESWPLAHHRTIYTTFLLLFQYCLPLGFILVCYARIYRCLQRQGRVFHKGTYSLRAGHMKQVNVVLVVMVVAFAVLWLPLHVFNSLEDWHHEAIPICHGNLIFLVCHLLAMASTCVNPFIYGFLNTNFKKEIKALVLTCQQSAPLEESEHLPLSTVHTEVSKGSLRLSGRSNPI

348 GPCRs [7] = target: T6, 348 GPCRs (Homo sapiens, UniProt P51684); conditions: 10µM, Favipiravir 100μM
T6 construct: expressed in transfected cells; host or cells: HEK293A
T6 sequence (P51684 1-374): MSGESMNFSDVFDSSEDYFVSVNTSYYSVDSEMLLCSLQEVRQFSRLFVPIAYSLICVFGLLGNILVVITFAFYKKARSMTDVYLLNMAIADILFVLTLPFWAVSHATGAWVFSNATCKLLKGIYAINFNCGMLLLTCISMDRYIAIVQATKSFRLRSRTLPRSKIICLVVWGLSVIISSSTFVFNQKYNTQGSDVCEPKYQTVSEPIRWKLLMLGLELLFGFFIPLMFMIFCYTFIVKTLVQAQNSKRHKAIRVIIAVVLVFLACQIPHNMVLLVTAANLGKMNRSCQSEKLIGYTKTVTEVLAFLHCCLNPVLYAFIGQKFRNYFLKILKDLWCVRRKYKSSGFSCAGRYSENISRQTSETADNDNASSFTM

348 GPCRs [8] = target: T7, 348 GPCRs (Homo sapiens, UniProt P51685); conditions: 10µM, Favipiravir 100μM
T7 construct: expressed in transfected cells; host or cells: HEK293A
T7 sequence (P51685 whole entry): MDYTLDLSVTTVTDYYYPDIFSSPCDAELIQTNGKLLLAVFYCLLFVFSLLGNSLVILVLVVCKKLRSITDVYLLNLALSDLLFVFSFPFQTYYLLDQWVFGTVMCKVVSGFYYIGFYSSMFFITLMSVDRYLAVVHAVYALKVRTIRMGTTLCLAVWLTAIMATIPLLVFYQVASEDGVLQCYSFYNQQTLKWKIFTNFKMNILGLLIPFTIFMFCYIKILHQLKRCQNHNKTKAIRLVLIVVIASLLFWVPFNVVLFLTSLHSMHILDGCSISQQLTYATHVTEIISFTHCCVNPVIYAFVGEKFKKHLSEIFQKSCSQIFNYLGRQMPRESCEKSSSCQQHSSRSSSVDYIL

348 GPCRs [9] = target: T8, 348 GPCRs (Homo sapiens, UniProt Q86SQ6)
T8 construct: expressed in transfected cells; host or cells: HEK293A
T8 sequence (Q86SQ6 1-560): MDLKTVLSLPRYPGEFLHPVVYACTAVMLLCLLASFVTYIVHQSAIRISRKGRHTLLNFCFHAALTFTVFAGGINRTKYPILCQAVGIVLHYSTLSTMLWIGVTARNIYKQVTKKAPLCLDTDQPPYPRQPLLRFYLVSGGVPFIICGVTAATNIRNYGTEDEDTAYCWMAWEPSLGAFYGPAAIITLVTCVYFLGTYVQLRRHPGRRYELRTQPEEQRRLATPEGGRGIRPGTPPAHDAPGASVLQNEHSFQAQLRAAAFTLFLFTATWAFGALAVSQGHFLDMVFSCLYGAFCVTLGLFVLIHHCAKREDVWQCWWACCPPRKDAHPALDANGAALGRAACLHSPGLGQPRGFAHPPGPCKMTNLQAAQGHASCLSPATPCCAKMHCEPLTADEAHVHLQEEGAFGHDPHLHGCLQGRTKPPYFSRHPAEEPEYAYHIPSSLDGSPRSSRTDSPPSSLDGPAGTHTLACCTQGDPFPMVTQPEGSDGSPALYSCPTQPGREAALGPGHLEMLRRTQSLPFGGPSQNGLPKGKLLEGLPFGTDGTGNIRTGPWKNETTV

348 GPCRs [10] = target: 348 GPCRs (Homo sapiens, UniProt Q8IYL9); conditions: GPCR GPR65 (G protein-coupled receptor 65)
348 GPCRs (Homo sapiens, UniProt Q8IYL9), sequence (Q8IYL9 whole entry): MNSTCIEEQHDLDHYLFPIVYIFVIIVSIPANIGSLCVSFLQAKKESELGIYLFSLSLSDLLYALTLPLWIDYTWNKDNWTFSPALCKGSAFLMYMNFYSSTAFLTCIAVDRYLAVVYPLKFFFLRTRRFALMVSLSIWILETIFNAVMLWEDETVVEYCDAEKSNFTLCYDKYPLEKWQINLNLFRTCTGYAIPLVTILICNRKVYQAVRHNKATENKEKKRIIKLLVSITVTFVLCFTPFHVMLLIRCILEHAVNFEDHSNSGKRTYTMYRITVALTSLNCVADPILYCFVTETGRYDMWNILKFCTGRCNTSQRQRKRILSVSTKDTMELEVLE

348 GPCRs [11] = target: T9, 348 GPCRs (Homo sapiens, UniProt Q9GZP7)
T9 construct: expressed in transfected cells; host or cells: HEK293A
T9 sequence (Q9GZP7 1-353): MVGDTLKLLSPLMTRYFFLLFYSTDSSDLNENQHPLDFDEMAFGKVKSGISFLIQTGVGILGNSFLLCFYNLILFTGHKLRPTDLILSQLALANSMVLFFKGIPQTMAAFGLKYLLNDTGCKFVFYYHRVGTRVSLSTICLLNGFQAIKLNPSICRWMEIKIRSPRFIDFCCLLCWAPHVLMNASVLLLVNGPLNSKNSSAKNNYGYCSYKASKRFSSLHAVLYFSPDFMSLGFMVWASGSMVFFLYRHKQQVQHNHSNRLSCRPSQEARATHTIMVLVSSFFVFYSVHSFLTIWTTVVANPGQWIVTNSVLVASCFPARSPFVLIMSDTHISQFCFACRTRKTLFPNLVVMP

348 GPCRs [12] = target: T10, 348 GPCRs (Homo sapiens, UniProt Q9GZQ4); conditions: 10µM, Favipiravir 100μM
T10 construct: expressed in transfected cells; host or cells: HEK293A
T10 sequence (Q9GZQ4 whole entry): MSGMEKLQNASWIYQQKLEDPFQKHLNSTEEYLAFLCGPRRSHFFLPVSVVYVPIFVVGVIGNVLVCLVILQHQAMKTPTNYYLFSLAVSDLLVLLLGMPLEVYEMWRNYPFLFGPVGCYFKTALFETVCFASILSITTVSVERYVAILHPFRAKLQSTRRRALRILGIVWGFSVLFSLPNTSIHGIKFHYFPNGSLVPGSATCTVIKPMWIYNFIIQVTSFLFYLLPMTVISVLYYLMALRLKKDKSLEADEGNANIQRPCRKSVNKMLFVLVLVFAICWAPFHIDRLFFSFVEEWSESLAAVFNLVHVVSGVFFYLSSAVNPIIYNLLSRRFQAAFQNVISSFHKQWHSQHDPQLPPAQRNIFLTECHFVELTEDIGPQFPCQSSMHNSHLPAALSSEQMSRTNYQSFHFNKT

348 GPCRs [13] = target: T11, 348 GPCRs (Homo sapiens, UniProt Q9Y2T5)
T11 construct: expressed in transfected cells; host or cells: HEK293A
T11 sequence (Q9Y2T5 whole entry): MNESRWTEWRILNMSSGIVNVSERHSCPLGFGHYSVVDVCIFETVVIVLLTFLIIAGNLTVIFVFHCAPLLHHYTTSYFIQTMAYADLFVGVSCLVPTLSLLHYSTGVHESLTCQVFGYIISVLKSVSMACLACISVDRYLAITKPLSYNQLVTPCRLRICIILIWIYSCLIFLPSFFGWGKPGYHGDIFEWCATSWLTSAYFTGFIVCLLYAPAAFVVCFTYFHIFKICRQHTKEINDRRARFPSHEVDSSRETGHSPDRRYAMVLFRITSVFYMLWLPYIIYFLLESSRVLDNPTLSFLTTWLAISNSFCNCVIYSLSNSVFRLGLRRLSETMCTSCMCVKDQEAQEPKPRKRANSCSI

[14] = S1PR2 (sphingosine-1-phosphate receptor 2), read-out: % GPCR activation compared to TPA
[15] = LHCGR (luteinizing hormone/choriogonadotropin receptor), read-out: % GPCR activation compared to TPA
[16] = H2 (histamine receptor H2), read-out: % GPCR activation compared to TPA
[17] = H1 (histamine receptor H1), read-out: % GPCR activation compared to TPA
[18] = NPY4R (neuropeptide Y receptor Y4), read-out: % GPCR activation compared to TPA
[19] = CCR6 (C-C motif chemokine receptor 6), read-out: % GPCR activation compared to TPA
[20] = CCR8 (C-C motif chemokine receptor 8), read-out: % GPCR activation compared to TPA
[21] = NMUR2 (neuromedin U receptor 2), read-out: % GPCR activation compared to TPA

T1 sequence (O95136 whole entry): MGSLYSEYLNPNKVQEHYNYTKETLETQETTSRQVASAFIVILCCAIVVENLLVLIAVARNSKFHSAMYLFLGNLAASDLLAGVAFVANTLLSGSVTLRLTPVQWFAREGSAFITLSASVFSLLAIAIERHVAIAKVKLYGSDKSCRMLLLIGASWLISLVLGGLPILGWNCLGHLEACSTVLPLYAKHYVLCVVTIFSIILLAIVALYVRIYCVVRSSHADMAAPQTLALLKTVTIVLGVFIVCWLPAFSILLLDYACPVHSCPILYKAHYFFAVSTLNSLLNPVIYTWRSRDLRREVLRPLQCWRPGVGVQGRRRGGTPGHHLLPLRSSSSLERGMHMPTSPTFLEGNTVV

**Q.** What does the source list for `NC(=O)c1nc(F)cnc1O` [favipiravir, 6-fluoro-3-hydroxy-2-pyrazinecarboxamide]?
**A.** activation at 10 µM (348 GPCRs [1]; [14]): -1.8%; activation at 100 µM (348 GPCRs [2]; GPCR MAS1 (MAS1 oncogene), 100μM, read-out: % GPCR activation compared to TPA): -7.84%; activation at 100 µM (348 GPCRs [3]; [15]): 0.315%; activation at 10 µM (348 GPCRs [4]; [16]): 0.663%; activation at 10 µM (348 GPCRs [5]; [17]): 0.654%; activation at 100 µM (348 GPCRs [6]; [18]): -2.23%; activation at 10 µM (348 GPCRs [7]; [19]): 0.146%; activation at 10 µM (348 GPCRs [8]; [20]): -0.669%; activation at 100 µM (348 GPCRs [9]; GPCR GPR123 (Adhesion G Protein-Coupled Receptor A1 (ADGRA1)), 100μM, read-out: % GPCR activation compared to TPA): -1.45%; % GPCR activation compared to TPA (348 GPCRs [10]; 100μM): 1.278%; activation at 100 µM (348 GPCRs [11]; GPCR VN1R1 (vomeronasal 1 receptor), 100μM, read-out: % GPCR activation compared to TPA): 1.77%; activation at 10 µM (348 GPCRs [12]; [21]): -2.41%; activation at 100 µM (348 GPCRs [13]; GPCR GPR52 (G protein-coupled receptor 52), 100μM, read-out: % GPCR activation compared to TPA): -2.31%

**Q.** Which activation at 10 µM (348 GPCRs [1]; [14]) does the source give for `N#C[C@@]1(c2ccc3c(N)ncnn23)O[C@H](CO)[C@@H](O)[C@H]1O` [GS441524] here?
**A.** Its activation at 10 µM is -1.37%.

**Q.** And the activation at 10 µM (348 GPCRs [2]; GPCR MAS1 (MAS1 oncogene), read-out: % GPCR activation compared to TPA)?
**A.** Its activation at 10 µM is -19.1%.

**Q.** And the activation at 100 µM (348 GPCRs [3]; [15])?
**A.** Its activation at 100 µM is 0.261%.

**Q.** And the activation at 10 µM (348 GPCRs [4]; [16])?
**A.** The activation at 10 µM was -1.14%.

**Q.** And the activation at 10 µM (348 GPCRs [5]; [17])?
**A.** Its activation at 10 µM is -5.47%.

**Q.** And the activation at 100 µM (348 GPCRs [6]; [18])?
**A.** Its activation at 100 µM is -1.48%.

**Q.** What about the activation at 10 µM (348 GPCRs [7]; [19]) of the same compound?
**A.** Its activation at 10 µM is 0.67%.

**Q.** What about the activation at 10 µM (348 GPCRs [8]; [20]) of the same compound?
**A.** The activation at 10 µM was -5.03%.

**Q.** What about the activation at 10 µM (348 GPCRs [9]; GPCR GPR123 (Adhesion G Protein-Coupled Receptor A1 (ADGRA1)), read-out: % GPCR activation compared to TPA) of the same compound?
**A.** Its activation at 10 µM is 0.375%.

**Q.** What about the “% GPCR activation compared to TPA” value (348 GPCRs [10]; 10µM) of the same compound?
**A.** Its value is -3.0793%.

**Q.** And the activation at 10 µM (348 GPCRs [11]; GPCR VN1R1 (vomeronasal 1 receptor), read-out: % GPCR activation compared to TPA)?
**A.** Its activation at 10 µM is 2.87%.

**Q.** And the activation at 10 µM (348 GPCRs [12]; [21])?
**A.** The activation at 10 µM was 2.73%.

**Q.** What about the activation at 10 µM (348 GPCRs [13]; GPCR GPR52 (G protein-coupled receptor 52), read-out: % GPCR activation compared to TPA) of the same compound?
**A.** Its activation at 10 µM is -1.15%.

**Q.** `CCC(CC)COC(=O)[C@H](C)N[P@](=O)(OC[C@H]1O[C@@](C#N)(c2ccc3c(N)ncnn23)[C@H](O)[C@@H]1O)Oc1ccccc1` [remdesivir] was tested. Which activation at 10 µM (348 GPCRs [1]; read-out: % GPCR activation compared to TPA, S1PR2 (sphingosine-1-phosphate receptor 2)) did it give?
**A.** Its activation at 10 µM is -3.06%.

**Q.** What about the activation at 10 µM (348 GPCRs [2]; read-out: % GPCR activation compared to TPA, GPCR MAS1 (MAS1 oncogene)) of the same compound?
**A.** Its activation at 10 µM is 21.3%.

**Q.** And the activation at 100 µM (348 GPCRs [3]; read-out: % GPCR activation compared to TPA, LHCGR (luteinizing hormone/choriogonadotropin receptor))?
**A.** Its activation at 100 µM is 0.234%.

**Q.** What about the activation at 10 µM (348 GPCRs [4]; read-out: % GPCR activation compared to TPA, H2 (histamine receptor H2)) of the same compound?
**A.** The activation at 10 µM was 2.05%.

**Q.** And the activation at 10 µM (348 GPCRs [5]; read-out: % GPCR activation compared to TPA, H1 (histamine receptor H1))?
**A.** Its activation at 10 µM is -3.69%.

**Q.** What about the activation at 100 µM (348 GPCRs [6]; read-out: % GPCR activation compared to TPA, NPY4R (neuropeptide Y receptor Y4)) of the same compound?
**A.** The activation at 100 µM was -1.2%.

**Q.** What about the activation at 10 µM (348 GPCRs [7]; read-out: % GPCR activation compared to TPA, CCR6 (C-C motif chemokine receptor 6)) of the same compound?
**A.** Its activation at 10 µM is 2.34%.

**Q.** And the activation at 10 µM (348 GPCRs [8]; read-out: % GPCR activation compared to TPA, CCR8 (C-C motif chemokine receptor 8))?
**A.** The activation at 10 µM was 0.425%.

**Q.** And the activation at 10 µM (348 GPCRs [9]; read-out: % GPCR activation compared to TPA, GPCR GPR123 (Adhesion G Protein-Coupled Receptor A1 (ADGRA1)))?
**A.** The activation at 10 µM was -0.903%.

**Q.** And the “% GPCR activation compared to TPA” value (348 GPCRs [10]; 10µM)?
**A.** The value was -1.387%.

**Q.** What about the activation at 10 µM (348 GPCRs [11]; read-out: % GPCR activation compared to TPA, GPCR VN1R1 (vomeronasal 1 receptor)) of the same compound?
**A.** The activation at 10 µM was 3.04%.

**Q.** And the activation at 10 µM (348 GPCRs [12]; read-out: % GPCR activation compared to TPA, NMUR2 (neuromedin U receptor 2))?
**A.** The activation at 10 µM was 0.527%.

**Q.** What about the activation at 10 µM (348 GPCRs [13]; read-out: % GPCR activation compared to TPA, GPCR GPR52 (G protein-coupled receptor 52)) of the same compound?
**A.** The activation at 10 µM was -0.476%.
